Measured values from patent US11292807B2 (OCEANS LTD., priority 2015, dated 2022).

Legend:
[1] = tested on: U373 (glioblastoma-astrocytoma); experiment: CIMA assay, cell viability, U373
[2] = tested on: THP-1 (acute monocytic leukemia); experiment: CIMA assay, cell viability, THP-1
PC3 = experiment: CIMA assay, cell viability, PC3
[3] = tested on: SKOV3 (ovarian adenocarcinoma); experiment: CIMA assay, cell viability, SKOV3; details: for Fold change in viability AVG: SKOV
[4] = U373, 10 ug/mL, listed as 169-14-15-4
[5] = U373, 10 ug/mL, listed as 174-13-14-3
[6] = U373, 50 ug/mL, listed as 169-14-15-4
[7] = U373, 50 ug/mL, listed as 174-13-14-3
[8] = THP-1, 1 ug/mL, listed as 174-13-14-3
[9] = THP-1, 10 ug/mL, listed as 174-13-14-3
[10] = THP-1, 50 ug/mL, listed as 174-13-14-3
[11] = THP-1, 100 ug/mL, listed as 174-13-14-3

CC/C=C\C/C=C\C/C=C\C/C=C\C/C=C\CCCC(=O)OCC(COC1OC(CO)C(O)C(O)C1O)OC(=O)CCCCCCCCCCCCCCC (stereo not shown) [Compound 2, MGDG C20:5/C16:0]
Fold change in viability AVG ([1]; U373, 1 ug/mL, listed as 174-13-14-3): 0.86 | Average cell viability [1, 4]: 94% | Fold change in viability AVG [1, 4]: 0.95 | Average cell viability [1, 5]: 73% | Fold change in viability AVG [1, 5]: 0.74 | Average cell viability [1, 6]: 30% | Fold change in viability AVG [1, 6]: 0.30 | Average cell viability [1, 7]: 13% | Fold change in viability AVG [1, 7]: 0.13 | U373 AVG ([1]; U373, sample at 1 ug/mL, listed as 169-14-15-4): 1.08 | U373 AVG ([1]; U373, sample at 1 ug/mL, listed as 174-13-14-3): 0.86 | U373 AVG ([1]; U373, sample at 10 ug/mL, listed as 169-14-15-4): 0.95 | U373 AVG ([1]; U373, sample at 10 ug/mL, listed as 174-13-14-3): 0.74 | U373 AVG ([1]; U373, sample at 50 ug/mL, listed as 169-14-15-4): 0.30 | U373 AVG ([1]; U373, sample at 50 ug/mL, listed as 174-13-14-3): 0.13 | U373 AVG ([1]; U373, sample at 100 ug/mL): 0.08 | Fold change in viability AVG ([1]; U373, 100 ug/mL): 0.08 | viability at 1 µg/mL ([2]; Homo sapiens, THP-1, read-out: Average cell viability, THP-1, 1 ug/mL): 102% | viability at 10 µg/mL ([2]; Homo sapiens, THP-1, read-out: Average cell viability, THP-1, 10 ug/mL): 101% | viability at 50 µg/mL ([2]; Homo sapiens, THP-1, read-out: Average cell viability, THP-1, 50 ug/mL): 27% | viability at 100 µg/mL ([2]; Homo sapiens, THP-1, read-out: Average cell viability, THP-1, 100 ug/mL): 17% | Fold change in viability AVG ([2]; THP-1, 1 ug/mL, listed as 169-14-15-4): 1.16 | Average cell viability [2, 8]: 91% | Fold change in viability AVG [2, 8]: 1.03 | Fold change in viability AVG ([2]; THP-1, 10 ug/mL, listed as 169-14-15-4): 1.14 | Average cell viability [2, 9]: 88% | Fold change in viability AVG [2, 9]: 1.00 | Fold change in viability AVG ([2]; THP-1, 50 ug/mL, listed as 169-14-15-4): 0.31 | Average cell viability [2, 10]: 21% | Fold change in viability AVG [2, 10]: 0.24 | Fold change in viability AVG ([2]; THP-1, 100 ug/mL, listed as 169-14-15-4): 0.19 | Average cell viability [2, 11]: 21% | Fold change in viability AVG [2, 11]: 0.23 | THP-1 AVG ([2]; THP-1, sample at 1 ug/mL, listed as 169-14-15-4): 1.16 | THP-1 AVG ([2]; THP-1, sample at 1 ug/mL, listed as 174-13-14-3): 1.03 | THP-1 AVG ([2]; THP-1, sample at 10 ug/mL, listed as 169-14-15-4): 1.14 | THP-1 AVG ([2]; THP-1, sample at 10 ug/mL, listed as 174-13-14-3): 1.00 | THP-1 AVG ([2]; THP-1, sample at 50 ug/mL, listed as 169-14-15-4): 0.31 | THP-1 AVG ([2]; THP-1, sample at 50 ug/mL, listed as 174-13-14-3): 0.24 | THP-1 AVG ([2]; THP-1, sample at 100 ug/mL, listed as 169-14-15-4): 0.19 | THP-1 AVG ([2]; THP-1, sample at 100 ug/mL, listed as 174-13-14-3): 0.23 | viability at 1 µg/mL (PC3; Homo sapiens, PC-3, read-out: Average cell viability, PC3, 1 ug/mL): 107% | Fold change in viability AVG (PC3; PC3, 1 ug/mL, listed as 169-14-15-4): 1.11 | Fold change in viability AVG (PC3; PC3, 1 ug/mL, listed as 174-13-14-3): 1.00 | Fold change in viability AVG (PC3; PC3, 10 ug/mL, listed as 169-14-15-4): 0.93 | Fold change in viability AVG (PC3; PC3, 10 ug/mL, listed as 174-13-14-3): 0.71 | Fold change in viability AVG (PC3; PC3, 50 ug/mL, listed as 169-14-15-4): 0.51 | Fold change in viability AVG (PC3; PC3, 50 ug/mL, listed as 174-13-14-3): 0.05 | Fold change in viability AVG (PC3; PC3, 100 ug/mL, listed as 169-14-15-4): 0.15 | Fold change in viability AVG (PC3; PC3, 100 ug/mL, listed as 174-13-14-3): 0.05 | PC3 AVG (PC3; PC3, sample at 1 ug/mL, listed as 169-14-15-4): 1.11 | PC3 AVG (PC3; PC3, sample at 1 ug/mL, listed as 174-13-14-3): 1.00 | PC3 AVG (PC3; PC3, sample at 10 ug/mL, listed as 169-14-15-4): 0.93 | PC3 AVG (PC3; PC3, sample at 10 ug/mL, listed as 174-13-14-3): 0.71 | PC3 AVG (PC3; PC3, sample at 50 ug/mL, listed as 169-14-15-4): 0.51 | PC3 AVG (PC3; PC3, sample at 50 ug/mL, listed as 174-13-14-3): 0.05 | PC3 AVG (PC3; PC3, sample at 100 ug/mL, listed as 169-14-15-4): 0.15 | PC3 AVG (PC3; PC3, sample at 100 ug/mL, listed as 174-13-14-3): 0.05 | viability at 50 µg/mL ([3]; Homo sapiens, SK-OV-3, read-out: Average cell viability, SKOV, 50 ug/mL): 67% | Fold change in viability AVG ([3]; 1 ug/mL, listed as 169-14-15-4): 1.16 | Fold change in viability AVG ([3]; 1 ug/mL, listed as 174-13-14-3): 0.89 | Fold change in viability AVG ([3]; 10 ug/mL, listed as 169-14-15-4): 1.02 | Fold change in viability AVG ([3]; 10 ug/mL, listed as 174-13-14-3): 0.72 | Fold change in viability AVG ([3]; 50 ug/mL, listed as 169-14-15-4): 0.72 | Fold change in viability AVG ([3]; 50 ug/mL, listed as 174-13-14-3): 0.67 | Fold change in viability AVG ([3]; 100 ug/mL, listed as 169-14-15-4): 0.48 | Fold change in viability AVG ([3]; 100 ug/mL, listed as 174-13-14-3): 0.19
